In paper PMC2855616 (ACS Chemical Biology, 2010):

System: hexokinase from Saccharomyces cerevisiae
Experiment: initial rates of ADP generation monitored with 5-ATR-ParM biosensor
Type: biochemical
Conditions: read-out: KM^glucose; 1 mM ATP, 50 mM Tris-HCl pH 7.5, 25 mM KCl, 10 mM MgCl2, 20 °C

- Km: 180 ± 9 µM
SMILES: OC[C@H]1OC(O)[C@H](O)[C@@H](O)[C@@H]1O (stereo partly drawn) [D-glucose]
